{
  "source": "patent US20080200393A1",
  "about": "“Method and Composition For Treating Angiogenesis and For Preventing Cancer Progression and Metastasis Comprising a Prostate Secretory Protein (Psp94) Family Member” (Ambrillia Biopharma Inc., priority 2004, published 2008)",
  "key": {"MMP-9": {"system": "MMP-9", "assay": "Western blot of MMP-9 in MatLyLu cell culture media", "type": "cell-based", "settings": "MatLyLu cells, 100 ug/ml, 500 ug/ml and 1 mg/ml, 72 hrs", "protocol": "A separate western blot experiment was performed in which MatLyLu cells were treated with 100 ug/ml, 500 ug/ml and 1 mg/ml of the PCK3145 derivative for 72 hrs. At the end of the experiment, the media were collected and concentrated 5 times using Amicon centrifugal filter devices (3500 molecular weight cut-off).\nTwenty five microliters samples were separated on SDS-PAGE gel under reducing conditions using pre-cast gels of 4-12% Bis-Tris (Invitrogen). Following electrophoresis, the proteins were transferred on nitrocellulose membrane. Non-specific binding sites were blocked using 5% skimmed milk in 10 mM phosphate buffer saline (PBS) containing 0.05% Tween-20 for 1 hour at room temperature. The membrane was later incubated with a primary antibody (monoclonal, RDI-MMP-9abm-2A5) at a concentration of 1 ug/ml (in 10 mM PBS, containing 0.5% bovine serum albumin (BSA) and 0.05% Tween-20) for 3 hours at room temperature.\nThe membranes were washed three times in PBS (5 minutes each wash) to remove non-specific binding and they were incubated with the secondary antibody (Rabbit anti-mouse IgG horseradish peroxidase-conjugated (Dako no. 0260)) at a dilution of 1:5000 for one hour. Detection of specific MMP-9 protein was made by incubating the membrane in ECL™ reagent (electro-chemoluminescence, Roche) and exposing to the X-ray film."}, "U-87 cells": {"system": "U-87 cells", "assay": "U-87 cell adhesion to hyaluronic acid", "type": "cell-based", "settings": "U-87, 300 ug/ml, 48 hrs; adhesion 3 hours; three independent experiments", "protocol": "ECM recognition is a crucial event in the cell adhesion processes involved in tumor progression. This process is mediated and regulated through specialized cell surface receptors or integrins. […] U-87 cells were treated with the PCK3145 derivative (300 ug/ml, 48 hrs), trypsinised, counted, and seeded on wells coated with 10 ug/ml BSA (bovine serum albumin) or HA. Cells were allowed to adhere for 3 hours. Three independent experiments were performed. […] One such potential intracellular protein is the GTPase RhoA, which is likely to mediate mechanisms regulating cytoskeletal morphogenesis."}, "HUVEC": {"system": "HUVEC", "assay": "HUVEC migration assay (modified Boyden chambers, gelatin-coated filters)", "type": "cell-based, Human", "protocol": "Migration Assays. Transwells filters (8-μm pore size; Costar, Cambridge, Mass.) were pre-coated with 0.5% gelatin/PBS for 24 h at 4° C. The transwells were then washed with PBS and assembled in 24-well plates. The upper chamber of each transwell was filled with 100 μl of HUVEC (1×10^6 cells/ml) and cells were allowed to adhere for 1 h. Cells were then treated for 2 h by adding 100 μl of 2-fold concentrated drug solution prepared in serum-free medium into the upper chamber and 600 μl of the drug solution into the lower chamber. Migration was initiated by adding VEGF (10 ng/ml), or S1P (1 μM) to the lower chamber. The plate was placed at 37° C. in 5% CO2/95% air for 4 h. Cells that had migrated to the lower surface of the filters were fixed with 10% formalin phosphate and stained with 0.1% Crystal Violet/20% (v/v) methanol. The migration was quantified using computer-assisted imaging and data are expressed as the average density of migrated cells per four fields (magnification×50).\nCells were plated onto gelatin-coated filters inserted in modified Boyden chemotactic chambers. The effect of PCK3145 on basal migration and on VEGF-induced migration was monitored by the number of cells that had migrated comparatively to untreated control cells. HUVEC were dislodged from the flasks by trypsinization, washed and resuspended in serum-free media. Cells were placed onto gelatin-coated filters inserted in chambers and incubated at 37° C., 5% CO2 for 30 min to allow adequate anchoring to the filters. The monolayers were then exposed to serum-free media containing PCK3145 (300 μg/ml) added within the upper and lower compartment of the chambers. After 2 h, VEGF (50 ng/ml) was added in the lower chamber as a chemoattractant. Cell migration was allowed to proceed for another 3 h. Filters were then fixed, stained, and the migrated cells quantified by microscopy as described in the Methods section. […] The effect of. PCK on S1P-induced HUVEC migration was also measured, but no inhibition was observed (not shown) in this particular assay."}, "CD44": {"system": "CD44", "assay": "CD44 cell surface shedding (Western blot of conditioned media)", "type": "cell-based", "settings": "serum-starved U-87, 300 ug/ml, 24 hours", "protocol": "Decreased cell migration and adhesion on HA was observed when U-87 cells were pretreated with the PCK3145 derivative. This can be interpreted as either a potential downregulation of CD44 expression at the cell surface or by a potential cell surface shedding. The latter hypothesis was tested by incubating serum-starve U-87 cells for 24 hours with the PCK3145 derivative (300 ug/ml), a concentration known to antagonize MMP secretion. The conditioned media was then TCA-precipitated and Westernblotting an immunodetection for a 75 kDa immunoreactive protein using the anti-CD44 antibody was performed. […] This effect is also shown in parallel with MT1-MMP-transfected cells. Such effect has been already reported by many groups and is established as one of the MT1-MMP-mediated functions in the regulation of the ECM adhesion. […] This induction has subsequently been reproduced below. Altogether, these observations provide a rational for the diminished cell migration/adhesion to HA."}},
  "note": "Where no end group is shown, it is not given here.",
  "data": [
    {"sequence": "EWQTDNCETCTCYET (cysteine pairing not given here) [PCK3145 derivative, PCK3145 derivative with acetylaminomethyl groups on the three cysteines]", "values": [
      {"measurement": "MMP-9 levels (western blot)", "setting": "MMP-9", "result": "dose-dependent reduction"},
      {"measurement": "diminution of cell adhesion on HA", "setting": "U-87 cells", "result": "45-76%"},
      {"measurement": "S1P-induced HUVEC migration", "setting": "HUVEC", "result": "no inhibition"},
      {"measurement": "CD44 cell surface shedding", "setting": "CD44", "result": "increased"}
    ]}
  ]
}
